Test results reported in patent US20070010669A1, “Novel class of cytodifferentiating agents and histone deacetylase inhibitors, and methods of use thereof” (priority 1999, published 2007).
Like-named read-outs stand apart in the source and are kept apart here.

Assays:
[1] = system: Murine erythroleukemia (MEL) cells; assay: MEL cell differentiation assay (benzidine assay; cell growth by Coulter Counter); assay type: cell-based; settings: for MEL Differentiation % B+ / MEL Differentiation Opt.: Table 1; for MEL Differentiation % B+: benzidine-positive cells at Opt. concentration; for MEL Differentiation Opt.: optimal concentration; for MEL Diff Cells/ml × 10^−5: cell growth
Protocol: The MEL cell differentiation assay was used to assess the ability of Compound 1 to induce terminal differentiation. MEL cells (logarithmically dividing) were cultured with the indicated concentrations of Compound 1. Following a 5-day culture period, cell growth was determined using a Coulter Counter and differentiation was determined microscopically using the benzidine assay to determine hemoglobin protein accumulation on a per cell basis.
The MEL cell differentiation assay was used to assess the ability of Compound 2 to induce terminal differentiation. MEL cells (logarithmically dividing) were cultured with the indicated concentrations of Compound 2. Following a 5-day culture period differentiation was determined microscopically using the benzidine assay to determine hemoglobin protein accumulation on a per cell basis.
The MEL cell differentiation assay was used to assess the ability of Compound 3 to induce terminal differentiation. MEL cells (logarithmically dividing) were cultured with the indicated concentrations of Compound 3. Following a 5-day culture period differentiation was determined microsdopically using the benzidine assay to determine hemoglobin protein accumulation on a per cell basis.
The MEL cell differentiation assay was used to assess the ability of Compound 4 to induce terminal differentiation. MEL cells (logarithmically dividing) were cultured with the indicated concentrations of Compound 4. Following a 5-day culture period differentiation was determined microscopically using the benzidine assay to determine hemoglobin protein accumulation on a per cell basis.
All the compounds which were prepared were tested. […] Table 2 is compiled from experiments similar to the experiments described in Examples 7-10 above.

HDAC = HDAC (Homo sapiens, UniProt Q13547); assay: Inhibition of the enzyme HDAC (Examples 12 and 13); assay type: biochemical; settings: read-out: ID50 as inhibitor of HDAC
[2] = molecular target: T1, affinity purified human epitope-tagged (Flag) HDAC1 (Homo sapiens, UniProt Q13547); assay: Histone Deacetylase (HDAC) enzymatic activity, [3H]acetyl-labeled histone substrate; assay type: biochemical; set-up: Flag
Protocol: Substrate ([^3H]acetyl-labeled murine erythroleukemia cell-derived histone) was added and the samples were incubated for 20 min at 37° C. in a total volume of 30 μl. The reaction were then stopped and released acetate was extracted and the amount of radioactivity released determined by scintillation counting.
Substrate ([^3H]acetyl-labelled murine erythroleukemia cell-derived histone) was added and the samples were incubated for 20 min at 37° C. in a total volume of 30 μl. The reactions were then stopped and relaesed acetate was extracted and the amount of radioactivity released determined by scintillation counting.
Substrate ([^3H]acetyl-labelled murine erythroleukemia cell-derived histone) was added and the samples were incubated for 20 min at 37° C. in a total volume of 30 μl. The reactions were then stopped and released acetate was extracted and the amount of radioactivity released determined by scintillation counting.
The effect was assayed by incubating the enzyme preparation in the absence of substrate on ice for 20 minutes with the indicated amounts of compound. Substrate([^3H]acetyl-labeled murine erythroleukemia cell-derived histones) was added and the samples were incubated for 20 minutes at 37° C. in a total volume of 30 μl. The reactions were then stopped and released acetate was extracted and the amount of radioactivity released determined by scintillation counting.

[3] = system: CWR22 human prostate xenograft; settings: 50 mg/kg/day
Source text: SAHA is currently in Phase I Clinical Trials in patients with solid tumors.

[4] = system: acetylated histones H3 and H4 in peripheral blood mononuclear cells; assay: Acetylated histones in peripheral blood mononuclear cells of patients under treatment; assay type: in vivo; settings: IV infusion daily ×3, FIG. 10
Protocol: FIG. 10. SAHA causes accumulation of acetylation histones H3 and H4 in peripheral blood […] cells in patients. SAHA was administered by IV infusion daily ×3. Samples were isolated before (Pre), following infusion (Post) and 2 hours after infusion.
The in vivo effect of SAHA has been studied using the CWR22 human prostate xenograft in mice (68).

[5] = molecular target: T1, affinity purified human epitope-tagged (Flag) HDAC1; settings: cited from earlier work
HDAC3 = HDAC3 (Homo sapiens, UniProt O15379); settings: cited from earlier work
[6] = Table 2, unit nM, read-out: HDAC inh ID50
[7] = Table 2, unit μM, read-out: HDAC inh ID50

HDAC, sequence (Q13547 whole entry): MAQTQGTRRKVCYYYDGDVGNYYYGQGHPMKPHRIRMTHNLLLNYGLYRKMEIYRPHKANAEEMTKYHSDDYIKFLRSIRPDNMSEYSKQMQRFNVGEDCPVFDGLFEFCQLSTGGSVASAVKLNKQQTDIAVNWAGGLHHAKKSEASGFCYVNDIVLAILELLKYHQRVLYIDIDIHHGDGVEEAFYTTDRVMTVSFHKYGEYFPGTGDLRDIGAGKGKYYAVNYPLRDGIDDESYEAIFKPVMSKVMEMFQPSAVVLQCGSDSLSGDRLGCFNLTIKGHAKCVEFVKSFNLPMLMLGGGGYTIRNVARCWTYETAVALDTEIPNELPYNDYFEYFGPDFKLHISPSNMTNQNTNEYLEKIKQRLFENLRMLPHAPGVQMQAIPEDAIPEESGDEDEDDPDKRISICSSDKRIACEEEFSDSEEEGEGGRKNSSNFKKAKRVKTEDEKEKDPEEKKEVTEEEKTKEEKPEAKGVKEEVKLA
T1 sequence (Q13547 whole entry): as above
HDAC3, sequence (O15379 whole entry): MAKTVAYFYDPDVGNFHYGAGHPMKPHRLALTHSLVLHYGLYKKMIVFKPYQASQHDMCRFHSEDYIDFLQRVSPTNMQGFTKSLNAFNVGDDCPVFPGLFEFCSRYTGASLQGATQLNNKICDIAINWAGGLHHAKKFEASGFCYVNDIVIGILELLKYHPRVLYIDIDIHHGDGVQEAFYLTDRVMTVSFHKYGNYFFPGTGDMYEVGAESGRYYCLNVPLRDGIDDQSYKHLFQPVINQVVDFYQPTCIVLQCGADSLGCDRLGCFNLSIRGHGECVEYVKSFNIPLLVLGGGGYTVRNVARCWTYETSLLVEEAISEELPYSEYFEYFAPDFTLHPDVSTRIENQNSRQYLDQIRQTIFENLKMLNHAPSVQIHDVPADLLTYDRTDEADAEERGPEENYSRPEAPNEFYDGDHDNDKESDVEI
HDAC3, sequence (Q9Y618 whole entry, further chain): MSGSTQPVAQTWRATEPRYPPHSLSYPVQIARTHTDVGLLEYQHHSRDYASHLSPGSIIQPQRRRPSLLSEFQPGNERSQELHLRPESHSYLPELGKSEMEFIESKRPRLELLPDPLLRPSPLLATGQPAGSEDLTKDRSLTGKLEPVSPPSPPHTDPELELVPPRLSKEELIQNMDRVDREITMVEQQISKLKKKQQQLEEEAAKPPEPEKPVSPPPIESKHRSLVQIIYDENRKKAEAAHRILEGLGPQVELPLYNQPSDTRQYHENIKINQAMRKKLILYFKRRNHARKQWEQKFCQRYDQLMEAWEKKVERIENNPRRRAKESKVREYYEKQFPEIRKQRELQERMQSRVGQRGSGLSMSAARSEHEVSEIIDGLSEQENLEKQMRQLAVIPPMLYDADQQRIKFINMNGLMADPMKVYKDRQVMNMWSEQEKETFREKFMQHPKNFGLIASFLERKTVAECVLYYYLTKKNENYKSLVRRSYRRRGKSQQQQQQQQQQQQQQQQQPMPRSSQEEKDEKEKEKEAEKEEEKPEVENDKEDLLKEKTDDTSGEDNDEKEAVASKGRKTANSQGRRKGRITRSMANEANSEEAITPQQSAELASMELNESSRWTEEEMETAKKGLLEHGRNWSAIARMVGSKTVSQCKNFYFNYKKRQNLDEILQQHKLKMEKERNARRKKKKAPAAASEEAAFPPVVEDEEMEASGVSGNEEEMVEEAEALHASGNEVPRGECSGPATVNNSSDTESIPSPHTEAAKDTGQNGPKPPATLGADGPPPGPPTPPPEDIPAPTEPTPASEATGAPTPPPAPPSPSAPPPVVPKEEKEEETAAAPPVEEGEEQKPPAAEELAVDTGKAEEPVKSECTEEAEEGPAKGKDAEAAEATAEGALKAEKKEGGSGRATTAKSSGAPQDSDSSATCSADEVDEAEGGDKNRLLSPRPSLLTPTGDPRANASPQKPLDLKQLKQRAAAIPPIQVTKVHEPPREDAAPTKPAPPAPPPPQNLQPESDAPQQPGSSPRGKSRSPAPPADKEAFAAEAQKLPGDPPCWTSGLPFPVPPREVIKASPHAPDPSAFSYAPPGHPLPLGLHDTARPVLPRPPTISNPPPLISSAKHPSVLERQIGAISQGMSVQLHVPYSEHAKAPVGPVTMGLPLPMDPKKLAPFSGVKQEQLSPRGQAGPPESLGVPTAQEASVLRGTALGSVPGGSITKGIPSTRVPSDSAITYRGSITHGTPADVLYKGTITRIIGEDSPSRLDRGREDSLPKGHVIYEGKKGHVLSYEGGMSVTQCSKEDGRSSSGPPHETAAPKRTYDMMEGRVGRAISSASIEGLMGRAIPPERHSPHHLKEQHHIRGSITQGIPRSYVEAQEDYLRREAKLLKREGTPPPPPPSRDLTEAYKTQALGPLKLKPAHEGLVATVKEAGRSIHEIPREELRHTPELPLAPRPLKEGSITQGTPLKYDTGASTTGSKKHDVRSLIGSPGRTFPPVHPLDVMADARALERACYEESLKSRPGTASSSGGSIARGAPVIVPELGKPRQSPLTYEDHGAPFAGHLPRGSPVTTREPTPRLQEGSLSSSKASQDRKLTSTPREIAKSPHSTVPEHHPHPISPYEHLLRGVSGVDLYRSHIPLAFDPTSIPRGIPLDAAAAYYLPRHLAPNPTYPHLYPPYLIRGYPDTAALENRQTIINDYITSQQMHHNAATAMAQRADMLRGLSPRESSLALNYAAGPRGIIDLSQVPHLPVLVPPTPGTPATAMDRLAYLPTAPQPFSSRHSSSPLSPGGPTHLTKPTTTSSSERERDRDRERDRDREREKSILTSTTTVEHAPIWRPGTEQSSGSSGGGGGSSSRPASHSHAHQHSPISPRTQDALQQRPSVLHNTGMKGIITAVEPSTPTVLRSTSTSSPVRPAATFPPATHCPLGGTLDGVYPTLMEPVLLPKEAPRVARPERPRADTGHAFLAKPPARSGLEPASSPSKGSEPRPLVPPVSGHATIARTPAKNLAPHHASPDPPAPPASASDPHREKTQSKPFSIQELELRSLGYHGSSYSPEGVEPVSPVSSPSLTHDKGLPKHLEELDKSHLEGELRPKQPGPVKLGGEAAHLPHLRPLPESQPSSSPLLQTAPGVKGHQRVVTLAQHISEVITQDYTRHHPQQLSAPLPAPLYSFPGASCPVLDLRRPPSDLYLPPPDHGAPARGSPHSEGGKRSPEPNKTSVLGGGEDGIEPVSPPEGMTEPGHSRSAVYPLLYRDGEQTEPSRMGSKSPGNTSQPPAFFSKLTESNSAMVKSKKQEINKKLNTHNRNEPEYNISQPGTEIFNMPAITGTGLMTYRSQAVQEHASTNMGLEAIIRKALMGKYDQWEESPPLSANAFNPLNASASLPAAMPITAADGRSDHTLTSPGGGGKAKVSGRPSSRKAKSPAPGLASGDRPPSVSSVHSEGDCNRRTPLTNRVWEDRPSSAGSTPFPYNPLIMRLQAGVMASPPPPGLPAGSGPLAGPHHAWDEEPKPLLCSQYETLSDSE

| SMILES | IC50 [2, 6] [nM] | IC50 [2, 7] [nM] | MEL Diff % B+ ([1]; Table 2) [%] | MEL Diff Cells/ml × 10^−5 ([1]; Table 2) | further results |
| --- | --- | --- | --- | --- | --- |
| O=C(CCCCC[C@H](NC(=O)OCc1ccccc1)C(=O)Nc1cccc2cccnc12)NO [Compound 4, N-benzyloxycarbonyl-(L)-α-aminosuberoyl-8-quinolinamide-ω-hydroxamic acid] | 2.5 | – | 8 | 13 Cells/ml × 10^−5 | concentration able to induce MEL cell differentiation ([1]; FIGS. 1, 3, 4, 6, 5-day culture): 40 nM; MEL Differentiation % B+ [1]: 8%; MEL Differentiation Opt. ([1]; 5-day culture): 40 nM; IC50 (HDAC; Example 12): 2.5 nM; IC50 ([2]; FIGS. 2, 5, 7, read-out: ID50 of HDAC1 enzymatic activity): < 10 nM; IC50 ([2]; Table 1, read-out: HDAC Inhibition ID50): < 10 nM |
| O=C(CCCCCC(C(=O)Nc1cccc2cccnc12)C(=O)Nc1cccc2cccnc12)NO [Compound 7] | – | – | – | – | IC50 (HDAC; Example 12): 50 nM |
| O=C(CCCCC[C@@H](NC(=O)c1ccccc1)NC(=O)C1CCCCC1)NO [Compound 663] | 100 | – | 43 | 7 Cells/ml × 10^−5 | – |
| O=C(CCCCC[C@H](NC(=O)c1cnc2ccccc2c1)C(=O)Nc1ccccc1)NO [Compound 664] | 50 | – | 33 | 22 Cells/ml × 10^−5 | – |
| O=C(CCCCC[C@H](NC(=O)c1cccs1)C(=O)Nc1ccccc1)NO [Compound 665] | 50 | – | 24 | 30 Cells/ml × 10^−5 | – |
| O=C(CCCCCC(C(=O)Nc1ccccc1)C(=O)Nc1ccccc1)NO [Compound 666] | 100 | – | 31 | 28 Cells/ml × 10^−5 | – |
| O=C(CCCCCC(C(=O)Nc1cccc2cccnc12)C(=O)Nc1cccc2cccnc12)NO [Compound 667] | 50 | – | 27 | 2 Cells/ml × 10^−5 | – |
| O=C(CCCCCCC(=O)Nc1cccc2cccnc12)NO [Compound 668] | 100 | – | 11 | 4.7 Cells/ml × 10^−5 | – |
| O=C(Nc1ccccc1)C(CCCCCC(=O)C(F)(F)F)C(=O)Nc1ccccc1 [Compound 669] | – | 10000 | 11 | 16.0 Cells/ml × 10^−5 | – |
| CN(C)c1cccc2cc(S(=O)(=O)NCCCCCC(=O)NO)ccc12 [Compound 671] | 200 | – | 35 | 12.5 Cells/ml × 10^−5 | – |
| OC(c1ncc[nH]1)(c1ncc[nH]1)c1nc(CCCCCc2cnc(C(O)(c3ncc[nH]3)c3ncc[nH]3)[nH]2)c[nH]1 [Compound 674] | – | 50000 | 0 | Dead at 25 μM | – |
| CC(=O)SCCCCCC(=O)Nc1ccccc1 [Compound 675] | – | > 100000 | 0 | No inh | – |
| O=C(CCCCCCC(=O)Nc1ccccc1)NO [SAHA, suberoylanilide hydroxamic acid, reference compound] | – | – | 68 | 3.6 Cells/ml × 10^−5 | optimal dose for the cytodifferentiation of MEL cells ([1]; Example 12): 2.5 µM; MEL Differentiation % B+ [1]: 68%; MEL Differentiation Opt. ([1]; 5-day culture): 2500 nM; MEL Diff Opt. ([1]; Table 2, cells printed in μM): 2.5 µM; reduction in mean final tumor volume compared to controls [3]: 97%; toxicity [3]: no .apparent toxicity; acetylated histones H3 and H4 in the tumor xenograft ([3]; FIG. 9): increase; acetylated histones H3 and H4 in peripheral blood mononuclear cells [4]: accumulation; IC50 (HDAC): 1000 nM; inhibition of affinity purified HDAC1 [5]: inhibits; inhibition of affinity purified HDAC3 (HDAC3): inhibits |

More lines, main results first:

| IC50 [2, 6] [nM] | IC50 [2, 7] [nM] | SMILES | MEL Diff % B+ ([1]; Table 2) [%] | MEL Diff Cells/ml × 10^−5 ([1]; Table 2) | further results |
| --- | --- | --- | --- | --- | --- |
| 5 | – | O=C(CCCCCC(C(=O)Nc1cnc2ccccc2c1)C(=O)Nc1cnc2ccccc2c1)NO [Compound 677] | 23 | 4.5 Cells/ml × 10^−5 | – |
| – | > 100000 | NS(=O)(=O)CCCCCC(=O)Nc1ccccc1 [Compound 678] | 0 | No inh | – |
| – | > 100000 | O=C(CCCCCn1ccnc1)Nc1ccccc1 [Compound 679] | 0 | No inh | – |
| 200 | – | O=C(CCCCCC(C(=O)Nc1cccc2cccnc12)(C(=O)Nc1cccc2cccnc12)c1ccccc1)NO [Compound 681] | 3 | 2.5 Cells/ml × 10^−5 | – |
| 150 | – | O=C(CCCCCC(C(=O)Nc1ccccc1)(C(=O)Nc1ccccc1)c1ccccc1)NO [Compound 682] | 8 | 1.1 Cells/ml × 10^−5 | – |
| 150 | – | O=C(CCCCCC(CCCCCC(=O)NO)(C(=O)Nc1cccc2cccnc12)C(=O)Nc1cccc2cccnc12)NO [Compound 685] | 20 | 1.0 Cells/ml × 10^−5 | – |
| – | 200000 | O=C(/C=C/c1cccc(C(=O)Nc2ccccc2)c1)NO [Compound 687] | 0 | No inh | – |
| – | > 100000 | O=C(CCCCCCC(=O)Nc1cc[nH]n1)Nc1ccccc1 [Compound 688] | 0 | No inh | – |
| 200 | – | O=C(/C=C/c1cccc(CC(=O)Nc2ccccc2)c1)NO [Compound 689] | 48 | – | – |
| 150 | – | O=C(/C=C/c1cccc(C(C(=O)Nc2cccc3cccnc23)C(=O)Nc2cccc3cccnc23)c1)NO [Compound 690] | 38 | – | – |
| 100 | – | O=C(CCCCCC(C(=O)Nc1cccc2ncccc12)C(=O)Nc1cccc2ncccc12)NO [Compound 691] | 0 | No inh | – |
| – | > 100000 | O=C(CCCCCCC(=O)Nc1nccs1)Nc1ccccc1 [Compound 693] | 0 | No inh | – |
